Molecules are shown by their SMILES.

The term IC50 denotes the point on the concentration scale where inhibition reaches its midpoint. Low values mean higher potency, high ones lower potency.

T1 sequence (P22303 32-614): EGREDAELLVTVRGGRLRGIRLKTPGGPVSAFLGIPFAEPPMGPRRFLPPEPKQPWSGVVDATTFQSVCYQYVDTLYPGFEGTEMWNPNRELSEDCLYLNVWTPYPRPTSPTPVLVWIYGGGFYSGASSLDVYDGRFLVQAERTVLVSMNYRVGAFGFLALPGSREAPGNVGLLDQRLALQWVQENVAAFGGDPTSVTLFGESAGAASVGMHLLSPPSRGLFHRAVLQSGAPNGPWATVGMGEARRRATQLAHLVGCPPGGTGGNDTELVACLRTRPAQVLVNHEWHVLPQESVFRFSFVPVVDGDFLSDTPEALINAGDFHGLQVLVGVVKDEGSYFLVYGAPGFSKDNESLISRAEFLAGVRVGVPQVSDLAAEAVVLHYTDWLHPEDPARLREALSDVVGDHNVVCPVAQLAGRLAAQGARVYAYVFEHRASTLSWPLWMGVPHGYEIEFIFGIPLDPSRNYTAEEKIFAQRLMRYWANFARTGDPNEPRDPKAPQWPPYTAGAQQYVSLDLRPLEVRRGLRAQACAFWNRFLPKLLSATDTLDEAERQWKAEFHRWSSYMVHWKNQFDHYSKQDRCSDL

This assay has as its target T1, AChE (Homo sapiens, UniProt P22303).
T1 construct: purchased Sigma Aldrich, Taufkirchen, D
Nature of the assay: biochemical.
The compound `CC1N=C(CCCCCCCCCCc2cc(O)ccc2OC2OC(CO)C(O)C(O)C2O)CC1O` (stereo not drawn) [compound 1, tiliine A] had an IC50 of 231 µM.

As for `CC1NC(CCCCCCCCCc2cc(O)ccc2OC2OC(CO)C(O)C(O)C2O)CCC1O` (stereo not drawn) [compound 2, tiliamine A], the IC50 stood at 172 µM.

Regarding `CC(=O)OC1CCC(CCCCCCCCCc2cc(O)ccc2O[C@@H]2O[C@H](CO)[C@@H](O)[C@H](O)[C@H]2O)NC1C` (stereo partly drawn) [compound 3, acetyl-tiliamine A], the 50% inhibitory concentration (IC50) is on record as 50% inhibition level was not achieved.

Source of the values: patent publication EP3960174B1 (priority 2020, dated 2022).
